The results in this text go back to US9169252B2 (BRISTOL-MYERS SQUIBB COMPANY, priority 2014, dated 2015).

The pIC50 is the negative decadic logarithm of the IC50, by convention in mol/L. Usually pEC50 stands for the negative decadic logarithm of the EC50, by convention in mol/L.

pEC50, pIC50: −log10 of the molar value.

Experiment [1] concerns the target IRAK4 (Homo sapiens (Human), UniProt Q9NWZ3). In words: IRAK4 Inhibition Assay. The settings on record: IRAK4 Inhibition Assay; ATP 500 μM; read-out: IRAK4 IC50. In kind it is biochemical. As to the method: The assays were performed in U-bottom 384-well plates. […] The reaction was initiated by the combination of IRAK4 with substrates and test compounds. The reaction mixture was incubated at room temperature for 60 min. and terminated by adding 45 μL of 35 mM EDTA to each sample. The reaction mixture was analyzed on the Caliper LABCHIP® 3000 (Caliper, Hopkinton, Mass.) by electrophoretic separation of the fluorescent substrate and phosphorylated product.

Experiment [2] deals with TLR2 induced IL-6 in peripheral blood mononuclear cells (PBMCs). Description: PBMC TLR2 Induced IL-6 Assay. The class given is cell-based, human. Conditions: Homo sapiens, PBMC, PBMC TLR2 Induced IL-6 Assay, lipoteichoic acid stimulation, IL-6 by ELISA; for pEC50: read-out: Cell EC50; for pIC50: read-out: Cell IC50. An outline of the steps: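 Lipoteichoic acid at 10 µg/ml served as TLR2 stimulus for 5 hours, following a 30-minute compound pretreatment at 37° C. Cells were Ficoll-isolated human PBMCs, 250000 cells/well, cultured in RPMI plus 10% heat-inactivated FCS.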
(An ELISA detects its analyte on a solid surface through an enzyme-linked reagent.)

IRAK4, sequence (Q9NWZ3 whole entry, species assumed): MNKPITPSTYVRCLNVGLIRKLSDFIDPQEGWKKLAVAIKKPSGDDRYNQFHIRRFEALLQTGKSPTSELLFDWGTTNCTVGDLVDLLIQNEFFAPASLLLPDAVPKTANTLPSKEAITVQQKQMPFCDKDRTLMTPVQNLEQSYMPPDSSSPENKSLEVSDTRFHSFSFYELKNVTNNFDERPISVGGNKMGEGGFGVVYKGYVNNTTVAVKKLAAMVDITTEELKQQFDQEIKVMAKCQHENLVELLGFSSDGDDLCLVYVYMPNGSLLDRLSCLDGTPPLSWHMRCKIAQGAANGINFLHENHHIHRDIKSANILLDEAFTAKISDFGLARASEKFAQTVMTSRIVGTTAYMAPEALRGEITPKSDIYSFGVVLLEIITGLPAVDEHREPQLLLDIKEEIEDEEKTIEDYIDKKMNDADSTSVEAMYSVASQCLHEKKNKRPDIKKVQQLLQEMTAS

`CC(C)Nc1cc(-n2ccc3cc(C#N)ccc32)ncc1C(=O)NC[C@@H](F)C(C)(C)O` [Example 1, (R)-6-(5-Cyano-1H-indol-1-yl)-N-(2-fluoro-3-hydroxy-3-methylbutyl)-4-(isopropylamino)nicotinamide]: the pIC50 in experiment [1] is 8.48. For the same compound, in experiment [2], the negative-log EC50 (pEC50) was 6.05 and the pIC50 is 6.06.
As for `CC(C)(O)[C@H](F)CNC(=O)c1cnc(-n2ccc3cc(C#N)cnc32)cc1NC1CC1` [Example 2, (R)-6-(5-cyano-1H-pyrrolo[2,3-b]pyridin-1-yl)-4-(cyclopropylamino)-N-(2-fluoro-3-hydroxy-3-methylbutyl)nicotinamide], the negative-log IC50 (pIC50) in experiment [1] is 8.80. Moreover, in experiment [2], the pEC50 is 8.10 and the pIC50 is 7.59.
The matching figures for `CC(C)(O)[C@H](F)CNC(=O)c1cnc(-n2ccc3cc(C#N)cnc32)cc1NC1CCOCC1` [Example 3, (R)-6-(5-cyano-1H-pyrrolo[2,3-b]pyridin-1-yl)-N-(2-fluoro-3-hydroxy-3-methylbutyl)-4-((tetrahydro-2H-pyran-4-yl)amino)nicotinamide]: 9.00, 7.96 and 7.32.
Taken in the same sequence, the figures for `CCNc1cc(-n2ccc3cc(C#N)cnc32)ncc1C(=O)NC[C@@H](F)C(C)(C)O` [Example 4, (R)-6-(5-cyano-1H-pyrrolo[2,3-b]pyridin-1-yl)-4-(ethylamino)-N-(2-fluoro-3-hydroxy-3-methylbutyl) nicotinamide] were 8.85, 7.82 and 6.80.
Taken in the same sequence, the figures for `CC(C)(O)[C@H](F)CNC(=O)c1cnc(-n2ccc3cc(C#N)cnc32)cc1NCC(F)(F)F` [Example 5, (R)-6-(5-cyano-1H-pyrrolo[2,3-b]pyridin-1-yl)-N-(2-fluoro-3-hydroxy-3-methylbutyl)-4-((2,2,2-trifluoroethyl)amino)nicotinamide] were 8.64, 7.11 and 7.02.
With `CC(C)(O)[C@H](F)CNC(=O)c1cnc(-n2ccc3cc(C#N)cnc32)cc1NC1CCC1` [Example 6, (R)-6-(5-cyano-1H-pyrrolo[2,3-b]pyridin-1-yl)-4-(cyclobutylamino)-N-(2-fluoro-3-hydroxy-3-methylbutyl) nicotinamide], the figures for the pIC50 in experiment [1] and in experiment [2] were 9.00 and 6.61, respectively. Moreover, in experiment [2], the pEC50 is 6.61.
For `C[C@@H](CO)Nc1cc(-n2ccc3cc(C#N)cnc32)ncc1C(=O)NC[C@@H](F)C(C)(C)O` [Example 9, 6-(5-cyano-1H-pyrrolo[2,3-b]pyridin-1-yl)-N—((R)-2-fluoro-3-hydroxy-3-methylbutyl)-4-(((S)-1-hydroxypropan-2-yl)amino) nicotinamide], in experiment [1], the negative-log IC50 (pIC50) is 8.82. In addition, in experiment [2], the pEC50 is 7.24 and the pIC50 was 7.37.
Consider `CC(C)(O)[C@H](F)CNC(=O)c1cnc(-n2ccc3cc(C#N)cnc32)cc1NC1CCCC1` [Example 10, (R)-6-(5-cyano-1H-pyrrolo[2,3-b]pyridin-1-yl)-4-(cyclopentylamino)-N-(2-fluoro-3-hydroxy-3-methylbutyl)nicotinamide], for which, in experiment [1], the pIC50 is 8.74. In addition, in experiment [2], the pEC50 is 7.20 and the negative logarithm of the IC50 (pIC50) is 7.10.
Turning to `CC(C)Nc1cc(-n2ccc3cc(C#N)cnc32)ncc1C(=O)NCCC(C)(C)O` [Example 11, 6-(5-cyano-1H-pyrrolo[2,3-b]pyridin-1-yl)-N-(3-hydroxy-3-methylbutyl)-4-(isopropylamino)nicotinamide], the pIC50 in experiment [1] was 8.77. Also, in experiment [2], the negative logarithm of the EC50 (pEC50) was 7.30.
The matching figures for `CC(C)(O)CCNC(=O)c1cnc(-n2ccc3cc(C#N)cnc32)cc1NC1CCOCC1` [Example 12, 6-(5-cyano-1H-pyrrolo[2,3-b]pyridin-1-yl)-N-(3-hydroxy-3-methylbutyl)-4-((tetrahydro-2H-pyran-4-yl)amino)nicotinamide]: 8.77 and 6.91.
Turning to `CC(C)(O)[C@H](F)CNC(=O)c1cnc(-n2ccc3cc(C#N)cnc32)cc1NC12CC3CC(CC(C3)C1)C2` [Example 13, 4-((1s,3S)-adamantan-1-ylamino)-6-(5-cyano-1H-pyrrolo[2,3-b]pyridin-1-yl)-N—((R)-2-fluoro-3-hydroxy-3-methylbutyl)nicotinamide], the pIC50 in experiment [1] is 7.92. Besides, the pEC50 in experiment [2] was 6.46.
Taken in the same sequence, the figures for `CC(C)Nc1cc(-n2ccc3cc(C#N)cnc32)ncc1C(=O)NC12CCC(O)(CC1)C2` [Example 14, 6-(5-cyano-1H-pyrrolo[2,3-b]pyridin-1-yl)-N-(4-hydroxybicyclo[2.2.1]heptan-1-yl)-4-(isopropylamino)nicotinamide] were 7.83 and 6.54.
The matching figures for `CC(C)Nc1cc(-n2ccc3cc(C#N)cnc32)ncc1C(=O)NCCCOC(C)(C)C` [Example 15, N-(3-(tert-butoxy)propyl)-6-(5-cyano-1H-pyrrolo[2,3-b]pyridin-1-yl)-4-(isopropylamino)nicotinamide]: 8.26 and 6.77.
Take `CC(C)(O)[C@H](F)CNC(=O)c1cnc(-n2ccc3cc(C#N)cnc32)cc1NC12CCC(O)(CC1)C2` [Example 16, (R)-6-(5-cyano-1H-pyrrolo[2,3-b]pyridin-1-yl)-N-(2-fluoro-3-hydroxy-3-methylbutyl)-4-((4-hydroxybicyclo[2.2.1]heptan-1-yl)amino)nicotinamide]: the negative logarithm of the IC50 (pIC50) in experiment [1] was 8.92. Also, the negative logarithm of the EC50 (pEC50) in experiment [2] was 7.82.
Taken in the same sequence, the figures for `CC1(Nc2cc(-n3ccc4cc(C#N)cnc43)ncc2C(=O)NC[C@@H](F)C(C)(C)O)CC1` [Example 17, (R)-6-(5-cyano-1H-pyrrolo[2,3-b]pyridin-1-yl)-N-(2-fluoro-3-hydroxy-3-methylbutyl)-4-((1-methylcyclopropyl)amino)nicotinamide] were 8.92 and 7.38.
For `CCCNc1cc(-n2ccc3cc(C#N)cnc32)ncc1C(=O)NC[C@@H](F)C(C)(C)O` [Example 18], the pIC50 in experiment [1] is 8.68. Also, the pEC50 in experiment [2] is 7.21.
As to `CC(C)CCNc1cc(-n2ccc3cc(C#N)cnc32)ncc1C(=O)NC[C@@H](F)C(C)(C)O` [Example 19, (R)-6-(5-cyano-1H-pyrrolo[2,3-b]pyridin-1-yl)-N-(2-fluoro-3-hydroxy-3-methylbutyl)-4-(isopentylamino) nicotinamide], the pIC50 in experiment [1] was 8.49. In experiment [2], the pEC50 is 6.60.
The matching figures for `CC1(CNc2cc(-n3ccc4cc(C#N)cnc43)ncc2C(=O)NC[C@@H](F)C(C)(C)O)COC1` [Example 20, (R)-6-(5-cyano-1H-pyrrolo[2,3-b]pyridin-1-yl)-N-(2-fluoro-3-hydroxy-3-methylbutyl)-4-(((3-methyloxetan-3-yl)methyl)amino)nicotinamide]: 8.24 and 6.30.
Turning to `CC(C)Nc1cc(-n2ccc3cc(C#N)cnc32)ncc1C(=O)NC[C@H](F)C(C)(C)O` [Example 23, (S)-6-(5-cyano-1H-pyrrolo[2,3-b]pyridin-1-yl)-N-(2-fluoro-3-hydroxy-3-methylbutyl)-4-(isopropylamino)nicotinamide], the pIC50 in experiment [1] was 8.59. In experiment [2], the pEC50 was 6.96.
